According to US9132126B2, “Phenyl-isoxazole derivatives and preparation process thereof” (priority 2011, dated 2015):
Converted amounts (≈) assume the structure as drawn.

Key:
[1] = tested on: influenza virus (K09) expressing GFP; type: cell-based; design: key: ◯ = effective; X = ineffective
[2] = tested on: novel influenza virus (B/Field); assay: microbe, parasite or virus in culture; type: cell-based; details: unidentified influenza virus
[3] = Acute toxicity test through oral administration in a rat; type: in vivo; details: Sprague-Dawley (SD), in vivo; male SD-Rat, single oral administration, 14 days observation
Protocol: The acute toxicity of the inventive compound was determined through oral administration in a rat. Since the compound is expected to be orally administered in a clinical situation, an oral administration route was selected. A male rat aged 6 weeks (SD-Rat, 220±30 g) was subjected to quarantine, and acclimated for 1 week under a condition of lighting of 12 hours (08:00˜20:00), and luminance of 150-300 Lux at 22±3° C. at a relative humidity of 50±20%, while being freely fed with feed and water. Each of a control group and an experimental group include 8 rats. The control group was orally administered with 0.5% HPMC, and the experimental group was orally administered with a material (different concentrations) suspended in 0.5% HPMC, by using a sonde in an amount in proportion to the measured weight of each individual.
The concentration of the drug administered to the experimental group was set as 2000 mg/kg (the highest concentration for a single dose administration in a non-clinical test), and 1000 mg/kg, and 500 mg/kg (with a common ratio). For 14 days from drug administration, clinical symptoms were observed while the weight change was measured. Test animals that died during the test were subjected to autopsy, and abnormalities of main organs (heart, liver, lung, spleen, kidney, and large intestine) were observed and recorded. On the last day of the test (on the 14th day from the administration), all individuals were subjected to autopsy, and the changes of the organs caused by a test material were observed and compared to those in the control group. In the control group, no rats had died, and abnormalities were not observed through autopsy.
Each group was orally administered in a concentration of 500 mg/kg, 1000 mg/kg, and 2000 mg/kg. For 14 days from the administration, according to the test method, clinical symptoms were observed. […] Also, in the groups administered in various amounts, no individuals died. […] Further, no abnormal responses were observed, and from the autopsy results, no peculiarities were observed.

[4] = tested on: novel influenza virus (K09); assay: microbe, parasite or virus in culture; type: cell-based; details: for SI value K09: CC50/EC50; for EC50: MDCK, 72 h, read-out: Plaque reduction (Experimental Example 2) EC50
[5] = Cytotoxicity assay using MTT; type: cell-based; details: dog, MDCK cells infected with influenza virus (K09), MDCK cell infected with K09; compound 24 hours; read-out: MTT assay (Experimental Example 3) CC50
Protocol: In this experiment, a cell was infected with a virus, and then the virus was directly treated with a compound so as to determine if the virus-infected cell has toxicity. For this, a cell (MDCK) was infected with an influenza virus (K09) for 1 hour, and treated with the compound with different concentrations for 24 hours. Then, the cell was treated with a MTT reagent for 1 hour. After 1 hour, a formazan crystal produced by the MTT reagent was dissolved in DMSO, and the absorbance was measured by an ELISA reader so as to determine CC50.
measured by MTT assay. A maximum concentration of the compound, at which the number of cells is reduced to half or more compared to that of a control group

[6] = tested on: H1N1 influenza virus (solomon); assay: microbe, parasite or virus in culture; type: cell-based; details: Solomon (H1N1); for EC50: Influenza A virus, read-out: EC50; for SI value: CC50/EC50

| Compound | GFP reduction (Experimental Example 1) effect [1] | EC50 [2] | LD50 at 14 days [3] | SI value K09 [4] | EC50 [4] | CC50 at 24 h [5] | EC50 [6] | SI value [6] |
| --- | --- | --- | --- | --- | --- | --- | --- | --- |
| COc1cccc(N2CCN(C(=O)c3c(-c4ccccc4C(F)(F)F)noc3C)CC2)c1 [Example 3, (4-(3-methoxyphenyl)piperazine-1-yl)(5-methyl-3-(2-(trifluoromethyl)phenyl)isoxazol-4-yl)methanone] | ◯ | > 50 mg/L | > 2000 mg/kg | 473.84 to 1903.03 | 0.33 to 0.65 mg/L (≈ 0.741 to 1.46 µM) | 308 to 628 mg/L (≈ 691 to 1410 µM) | 0.064 to 0.094 mg/L (≈ 0.144 to 0.211 µM) | 3276.59 to 9812.50 |
| COc1cccc(N2CCN(C(=O)c3c(-c4ccccc4Cl)noc3C)CC2)c1 [Example 9, (3-(2-chlorophenyl)-5-methylisoxazol-4-yl)(4-(3-methoxyphenyl)piperazine-1-yl)methanone] | ◯ | > 50 mg/L | > 2000 mg/kg | 801.282 to 3205.128 | 0.195 to 0.39 mg/L (≈ 0.473 to 0.947 µM) | 312 to 625 mg/L (≈ 759 to 1520 µM) | 0.048 to 0.097 mg/L (≈ 0.117 to 0.236 µM) | 3221.649 to 13020.833 |
| Cc1onc(-c2ccc(OC(F)(F)F)cc2)c1C(=O)N1CCN(c2ccc(Cl)c(Cl)c2)CC1 [Example 27, (4-(3,4-dichlorophenyl)piperazine-1-yl)(5-methyl-3-(4-(trifluoromethoxy)phenyl)isoxazol-4-yl)methanone] | ◯ |  | > 2000 mg/kg | 2.5 to 8.13 | 2.4 to 3.9 mg/L (≈ 4.8 to 7.8 µM) | 9.77 to 19.5 mg/L (≈ 19.5 to 39 µM) |  |  |
| Cc1onc(-c2cccc(C(F)(F)F)c2)c1C(=O)N1CCN(c2ccc(Cl)c(Cl)c2)CC1 [Example 43, (4-(3,4-dichlorophenyl)piperazine-1-yl)(5-methyl-3-(3-(trifluoromethyl)phenyl)isoxazol-4-yl)methanone] | X |  |  |  | > 50 mg/L | 2500 mg/L (≈ 5160 µM) |  |  |
| Cc1onc(-c2cccc(OC(F)(F)F)c2)c1C(=O)N1CCN(c2ccc(Cl)c(Cl)c2)CC1 [Example 51, (4-(3,4-dichlorophenyl)piperazine-1-yl)(5-methyl-3-(3-(trifluoromethoxy)phenyl)isoxazol-4-yl)methanone] | ◯ |  |  | 3.91 to 10.80 | 2.4 to 3.9 mg/L (≈ 4.8 to 7.8 µM) | 15.2 to 25.9 mg/L (≈ 30.5 to 51.8 µM) |  |  |
| COc1ccccc1N1CCN(C(=O)c2c(-c3cccc(OC(F)(F)F)c3)noc2C)CC1 [Example 53, (4-(2-methoxyphenyl)piperazine-1-yl)(5-methyl-3-(3-(trifluoromethoxy)phenyl)isoxazol-4-yl)methanone] | ◯ |  |  | 160< | 3.12 mg/L (≈ 6.76 µM) | > 500 mg/L |  |  |
| COc1ccccc1N1CCN(C(=O)c2c(-c3ccccc3Cl)noc2N)CC1 [Example 61, (5-amino-3-(2-chlorophenyl)isoxazol-4-yl)(4-(2-methoxyphenyl)piperazine-1-yl)methanone] | ◯ |  | > 2000 mg/kg | 159.94 to 319.89 | 0.39 mg/L (≈ 0.945 µM) | 62.5 to 125 mg/L (≈ 151 to 303 µM) |  |  |
| Nc1onc(-c2cccc(F)c2)c1C(=O)N1CCN(c2ccc(Cl)c(Cl)c2)CC1 [Example 67, (5-amino-3-(3-fluorophenyl)isoxazol-4-yl)(4-(3,4-dichlorophenyl)piperazine-1-yl)methanone] | ◯ |  |  | 2.59 to 8.85 | 2.4 to 3.9 mg/L (≈ 5.51 to 8.96 µM) | 10.1 to 21.2 mg/L (≈ 23.2 to 48.8 µM) |  |  |
| COc1cccc(N2CCN(C(=O)c3c(-c4cccc(F)c4)noc3N)CC2)c1 [Example 68, (5-amino-3-(3-fluorophenyl)isoxazol-4-yl)(4-(3-methoxyphenyl)piperazine-1-yl)methanone] | ◯ |  |  | 3.03 to 7.81 | 17.5 to 29 mg/L (≈ 44.1 to 73.2 µM) | 88.1 to 137 mg/L (≈ 222 to 345 µM) |  |  |
| Nc1onc(-c2cccc(F)c2)c1C(=O)N1CCN(c2ccccc2O)CC1 [Example 72, (5-amino-3-(3-fluorophenyl)isoxazol-4-yl)(4-(2-hydroxyphenyl)piperazine-1-yl)methanone] | ◯ |  |  | 0.31 to 1.25 | 25 to 50 mg/L (≈ 65.4 to 131 µM) | 15.6 to 31.2 mg/L (≈ 40.8 to 81.7 µM) |  |  |
| Nc1onc(-c2ccccc2F)c1C(=O)N1CCN(c2ccc(Cl)c(Cl)c2)CC1 [Example 75, (5-amino-3-(2-fluorophenyl)isoxazol-4-yl)(4-(3,4-dichlorophenyl)piperazine-1-yl)methanone] | ◯ |  |  | 12.5 to 25.0 | > 50 mg/L | 625 to 1250 mg/L (≈ 1440 to 2870 µM) |  |  |
| Nc1onc(-c2ccccc2C(F)(F)F)c1C(=O)N1CCN(c2ccc(Cl)c(Cl)c2)CC1 [Example 91, (5-amino-3-(2-(trifluoromethyl)phenyl)isoxazol-4-yl)(4-(3,4-dichlorophenyl)piperazine-1-yl)methanone] | ◯ |  |  | 0.71 to 2.39 | 12.4 to 25.8 mg/L (≈ 25.7 to 53.2 µM) | 18.4 to 29.9 mg/L (≈ 37.8 to 61.6 µM) |  |  |
| COc1cccc(N2CCN(C(=O)c3c(-c4ccc(OC(F)(F)F)cc4)noc3N)CC2)c1 [Example 100, (5-amino-3-(4-(trifluoromethoxy)phenyl)isoxazol-4-yl)(4-(3-methoxyphenyl)piperazine-1-yl)methanone] | ◯ |  |  | 0.49 to 12.57 | 29 to 37 mg/L (≈ 62.7 to 80 µM) | 18.4 to 46.5 mg/L (≈ 39.9 to 101 µM) |  |  |
| Nc1onc(-c2cccc(C(F)(F)F)c2)c1C(=O)N1CCN(c2ccc(Cl)c(Cl)c2)CC1 [Example 107, (5-amino-3-(3-(trifluoromethyl)phenyl)isoxazol-4-yl)(4-(3,4-dichlorophenyl)piperazine-1-yl)methanone] | ◯ |  | > 2000 mg/kg | 31.34 to 62.68 | 2.72 to 3.9 mg/L (≈ 5.6 to 8.04 µM) | 122 to 170 mg/L (≈ 252 to 351 µM) |  |  |
| COc1ccccc1N1CCN(C(=O)c2c(-c3cccc(C(F)(F)F)c3)noc2N)CC1 [Example 109, (5-amino-3-(3-(trifluoromethyl)phenyl)isoxazol-4-yl)(4-(2-methoxyphenyl)piperazine-1-yl)methanone] | ◯ |  | > 2000 mg/kg | 42.07 to 125.4 | 1.52 to 3.5 mg/L (≈ 3.4 to 7.84 µM) | 147 to 191 mg/L (≈ 330 to 427 µM) |  |  |
| Nc1onc(-c2cccc(C(F)(F)F)c2)c1C(=O)N1CCN(c2ccccc2O)CC1 [Example 112, (5-amino-3-(3-(trifluoromethyl)phenyl)isoxazol-4-yl)(4-(2-hydroxyphenyl)piperazine-1-yl)methanone] | ◯ |  |  | 0.33 to 1.37 | 25 to 50 mg/L (≈ 57.8 to 116 µM) | 16.5 to 34.3 mg/L (≈ 38.2 to 79.3 µM) |  |  |
| Nc1onc(-c2cccc(OC(F)(F)F)c2)c1C(=O)N1CCN(c2ccc(Cl)c(Cl)c2)CC1 [Example 115, (5-amino-3-(3-(trifluoromethoxy)phenyl)isoxazol-4-yl)(4-(3,4-dichlorophenyl)piperazine-1-yl)methanone] | ◯ |  |  | 0.34 to 1.70 | 21 to 45 mg/L (≈ 41.9 to 89.8 µM) | 15.5 to 35.8 mg/L (≈ 30.9 to 71.3 µM) |  |  |
| COc1cccc(N2CCN(C(=O)c3c(-c4cccc(OC(F)(F)F)c4)noc3N)CC2)c1 [Example 116, (5-amino-3-(3-(trifluoromethoxy)phenyl)isoxazol-4-yl)(4-(3-methoxyphenyl)piperazine-1-yl)methanone] | ◯ |  |  | 0.42 to 1.70 | 15 to 32 mg/L (≈ 32.4 to 69.2 µM) | 13.7 to 25.6 mg/L (≈ 29.5 to 55.4 µM) |  |  |
| CCOC(=O)C1CCN(C(=O)c2c(-c3ccccc3Cl)noc2N)CC1 [Example 122, ethyl-1-(5-amino-3-(2-chlorophenyl)isoxazol-4-carbonyl)piperidine-4-carboxylate] | ◯ |  | > 2000 mg/kg | 18.89 to 71.27 | 4.5 to 8.5 mg/L (≈ 11.9 to 22.5 µM) | 161 to 321 mg/L (≈ 425 to 849 µM) |  |  |
